Legend:
ISC-enriched organoids [1] = experiment: Primary screen, 384-well 2.5-D organoid differentiation (ENR+CD, 6 days): basal lysozyme secretion (LYZ.NS); assay type: cell-based, murine; details: for Dose.FC.LYZ.NS: FC vs plate median; for Z.LYZ.NS: standard z score of FC
Description: (§1) High-throughput screening.

ISC-enriched organoids [2] = experiment: Primary screen, 384-well 2.5-D organoid differentiation (ENR+CD, 6 days): carbachol-induced lysozyme secretion (LYZ.S); assay type: cell-based, murine; details: primary screen, FC vs plate median
Description: as §1

ISC-enriched organoids [3] = experiment: Primary screen, 384-well 2.5-D organoid differentiation (ENR+CD, 6 days, Target Selective Inhibitor Library, vs whole-plate median): ATP (CellTiter-Glo 3D, CTG); details: for Dose.FC.CTG: FC vs plate median; for Z.CTG: standard z score of FC
[4] = primary screen, dose 0.08 uM, ENR+CD 6 days
[5] = primary screen, dose 0.40 uM, ENR+CD 6 days
[6] = primary screen, dose 2.00 uM, ENR+CD 6 days
[7] = primary screen, dose 10.00 uM, ENR+CD 6 days

| Compound | Dose.FC.LYZ.NS (ISC-enriched organoids [1]; [4]) [log 2 fold change] | Z.LYZ.NS (ISC-enriched organoids [1]; primary screen, dose 0.08 uM) | Dose.FC.LYZ.NS (ISC-enriched organoids [1]; [5]) [log 2 fold change] | Z.LYZ.NS (ISC-enriched organoids [1]; primary screen, dose 0.40 uM) | Dose.FC.LYZ.NS (ISC-enriched organoids [1]; [6]) [log 2 fold change] | Z.LYZ.NS (ISC-enriched organoids [1]; primary screen, dose 2.00 uM) | Dose.FC.LYZ.NS (ISC-enriched organoids [1]; [7]) [log 2 fold change] | Z.LYZ.NS (ISC-enriched organoids [1]; primary screen, dose 10.00 uM) | Dose.FC.LYZ.S (ISC-enriched organoids [2]; dose 0.08 uM, ENR+CD 6 days) [log 2 fold change] | Dose.FC.LYZ.S (ISC-enriched organoids [2]; dose 0.40 uM, ENR+CD 6 days) [log 2 fold change] | Dose.FC.LYZ.S (ISC-enriched organoids [2]; dose 2.00 uM, ENR+CD 6 days) [log 2 fold change] | Dose.FC.LYZ.S (ISC-enriched organoids [2]; dose 10.00 uM, ENR+CD 6 days) [log 2 fold change] | Dose.FC.CTG (ISC-enriched organoids [3]; [4]) [log 2 fold change] | Z.CTG (ISC-enriched organoids [3]; primary screen, dose 0.08 uM) | Dose.FC.CTG (ISC-enriched organoids [3]; [5]) [log 2 fold change] | Z.CTG (ISC-enriched organoids [3]; primary screen, dose 0.40 uM) | Dose.FC.CTG (ISC-enriched organoids [3]; [6]) [log 2 fold change] | Z.CTG (ISC-enriched organoids [3]; primary screen, dose 2.00 uM) | Dose.FC.CTG (ISC-enriched organoids [3]; [7]) [log 2 fold change] | Z.CTG (ISC-enriched organoids [3]; primary screen, dose 10.00 uM) | other results |
| --- | --- | --- | --- | --- | --- | --- | --- | --- | --- | --- | --- | --- | --- | --- | --- | --- | --- | --- | --- | --- | --- |
| CCNC(=O)c1noc(-c2cc(C(C)C)c(O)cc2O)c1-c1ccc(CN2CCOCC2)cc1 [AUY922 (NVP-AUY922)] | −0.144 | −1.251 | −0.154 | −1.343 | −0.138 | −1.200 | −0.153 | −1.330 | −0.209 | −0.184 | −0.216 | −0.214 | −1.185 | −2.830 | −1.343 | −3.208 | −1.137 | −2.715 | −1.270 | −3.032 |  |
| C/C(=C\C(=O)Nc1ccccc1C(=O)O)c1ccc2ccccc2c1 [BIBR 1532] | 0.032 | 0.282 | 0.043 | 0.377 | −0.013 | −0.117 | −0.062 | −0.536 | 0.028 | 0.107 | −0.081 | −0.114 | 0.223 | 0.533 | −0.047 | −0.113 | −0.034 | −0.080 | 0.030 | 0.072 |  |
| CCCC(C)NC(=O)c1ccc(Cl)c(Cl)c1 (centres unmarked) [NSC 405020] |  |  |  |  |  |  |  |  |  |  |  |  |  |  |  |  |  |  |  |  | Dose.FC.LYZ.NS (ISC-enriched organoids [1]; Dose 0.08 uM, primary screen): 0.008 log 2 fold change; Z.LYZ.NS (ISC-enriched organoids [1]; Dose 0.08 uM): 0.071; Dose.FC.LYZ.NS (ISC-enriched organoids [1]; Dose 0.40 uM, primary screen): −0.028 log 2 fold change; Z.LYZ.NS (ISC-enriched organoids [1]; Dose 0.40 uM): −0.246; Dose.FC.LYZ.NS (ISC-enriched organoids [1]; Dose 2.00 uM, primary screen): 0.018 log 2 fold change; Z.LYZ.NS (ISC-enriched organoids [1]; Dose 2.00 uM): 0.160; Dose.FC.LYZ.NS (ISC-enriched organoids [1]; Dose 10.00 uM, primary screen): −0.065 log 2 fold change; Z.LYZ.NS (ISC-enriched organoids [1]; Dose 10.00 uM): −0.570; Dose.FC.LYZ.S (ISC-enriched organoids [2]; Dose 0.08 uM): 0.014 log 2 fold change; Dose.FC.LYZ.S (ISC-enriched organoids [2]; Dose 0.40 uM): 0.093 log 2 fold change; Dose.FC.LYZ.S (ISC-enriched organoids [2]; Dose 2.00 uM): 0.002 log 2 fold change; Dose.FC.LYZ.S (ISC-enriched organoids [2]; Dose 10.00 uM): −0.061 log 2 fold change; Dose.FC.CTG (ISC-enriched organoids [3]; Dose 0.08 uM, primary screen): −0.059 log 2 fold change; Z.CTG (ISC-enriched organoids [3]; Dose 0.08 uM): −0.140; Dose.FC.CTG (ISC-enriched organoids [3]; Dose 0.40 uM, primary screen): −0.071 log 2 fold change; Z.CTG (ISC-enriched organoids [3]; Dose 0.40 uM): −0.170; Dose.FC.CTG (ISC-enriched organoids [3]; Dose 2.00 uM, primary screen): −0.059 log 2 fold change; Z.CTG (ISC-enriched organoids [3]; Dose 2.00 uM): −0.141; Dose.FC.CTG (ISC-enriched organoids [3]; Dose 10.00 uM, primary screen): −0.058 log 2 fold change; Z.CTG (ISC-enriched organoids [3]; Dose 10.00 uM): −0.138 |
| O=c1cc(N2CCOCC2)oc2c1ccc1ccccc12 [NU7026] |  |  |  |  |  |  |  |  |  |  |  |  |  |  |  |  |  |  |  |  | Dose.FC.LYZ.NS (ISC-enriched organoids [1]; Dose 0.08 uM, primary screen): 0.023 log 2 fold change; Z.LYZ.NS (ISC-enriched organoids [1]; Dose 0.08 uM): 0.198; Dose.FC.LYZ.NS (ISC-enriched organoids [1]; Dose 0.40 uM, primary screen): 0.023 log 2 fold change; Z.LYZ.NS (ISC-enriched organoids [1]; Dose 0.40 uM): 0.198; Dose.FC.LYZ.NS (ISC-enriched organoids [1]; Dose 2.00 uM, primary screen): −0.058 log 2 fold change; Z.LYZ.NS (ISC-enriched organoids [1]; Dose 2.00 uM): −0.507; Dose.FC.LYZ.NS (ISC-enriched organoids [1]; Dose 10.00 uM, primary screen): −0.158 log 2 fold change; Z.LYZ.NS (ISC-enriched organoids [1]; Dose 10.00 uM): −1.380; Dose.FC.LYZ.S (ISC-enriched organoids [2]; Dose 0.08 uM): 0.021 log 2 fold change; Dose.FC.LYZ.S (ISC-enriched organoids [2]; Dose 0.40 uM): 0.034 log 2 fold change; Dose.FC.LYZ.S (ISC-enriched organoids [2]; Dose 2.00 uM): −0.056 log 2 fold change; Dose.FC.LYZ.S (ISC-enriched organoids [2]; Dose 10.00 uM): −0.198 log 2 fold change; Dose.FC.CTG (ISC-enriched organoids [3]; Dose 0.08 uM, primary screen): 0.096 log 2 fold change; Z.CTG (ISC-enriched organoids [3]; Dose 0.08 uM): 0.230; Dose.FC.CTG (ISC-enriched organoids [3]; Dose 0.40 uM, primary screen): 0.104 log 2 fold change; Z.CTG (ISC-enriched organoids [3]; Dose 0.40 uM): 0.248; Dose.FC.CTG (ISC-enriched organoids [3]; Dose 2.00 uM, primary screen): 0.107 log 2 fold change; Z.CTG (ISC-enriched organoids [3]; Dose 2.00 uM): 0.255; Dose.FC.CTG (ISC-enriched organoids [3]; Dose 10.00 uM, primary screen): −0.119 log 2 fold change; Z.CTG (ISC-enriched organoids [3]; Dose 10.00 uM): −0.284 |
